From US5434136A, “Treatment of motility disorders with a GNRH analog” (priority 1992, dated 1995)

How the values were obtained:
[1] = test system: irritable bowel syndrome; conditions: patient, three months
Protocol: The patient, a patient suffering from irritable bowel syndrome presented symptoms of nausea, vomiting, abdominal pain, and altered bowel habits. This patient was treated with lupron, 2.0 mg/day by subcutaneous injection, for a period of six months. […] Nafarelin is a GnRH analog available from SYNTEX, which differs from the natural GnRH peptide in a D-Nal (2)^6 substitution. […] Nafarelin therapy was discontinued, and treatment with Danazol, a 17-ethyltestosterone derivative known to antagonize GnRH receptors at the level of the pituitary, was begun, at 200 mg four times daily, P.O., for a period of three months.

[2] = test system: diseases of the autonomic nervous system; conditions: cited from earlier work; for Success of therapy: patients with mild to moderate disease symptoms; for Relief of symptoms: mild to moderate symptoms; for Relief of symptoms / Effectiveness in patients with severe symptoms: experimental drugs

| SMILES | Success of therapy [2] | Relief of symptoms [2] | Effectiveness in patients with severe symptoms [2] | other results |
| --- | --- | --- | --- | --- |
| C#C[C@]1(O)CC[C@H]2[C@@H]3CCC4=Cc5oncc5C[C@]4(C)[C@H]3CC[C@@]21C [Danazol] | – | – | – | Therapeutic effect ([1]; 200 mg four times daily, P.O.): only minimal therapeutic effect |
| CC(C)C[C@H](NC(=O)[C@@H](Cc1ccc2ccccc2c1)NC(=O)[C@H](Cc1ccc(O)cc1)NC(=O)[C@H](CO)NC(=O)[C@H](Cc1c[nH]c2ccccc12)NC(=O)[C@H](Cc1c[nH]cn1)NC(=O)[C@@H]1CCC(=O)N1)C(=O)N[C@@H](CCCNC(=N)N)C(=O)N1CCC[C@H]1C(=O)NCC(N)=O [Nafarelin] | – | – | – | Blood levels of FSH and LH ([1]; 2.0 mg/day s.c.): effectively reduced their blood levels of FSH and LH; Symptoms of irritable bowel disease ([1]; 2.0 mg/day s.c.): effectively reduced the symptoms of their irritable bowel disease |
| CC(C[N+](C)(C)C)OC(N)=O (stereo not drawn) [bethanechol] | limited success | – | – | – |
| COc1cc(N)c(Cl)cc1C(=O)NC1CCN(CCCOc2ccc(F)cc2)CC1OC (stereo not drawn) [cisapride] | – | limited relief of mild to moderate symptoms | not been effective | – |
| O=c1[nH]c2ccccc2n1CCCN1CCC(n2c(=O)[nH]c3cc(Cl)ccc32)CC1 [domperidone] | – | limited relief of mild to moderate symptoms | not been effective | – |
| CCN(CC)CCNC(=O)c1cc(Cl)c(N)cc1OC [metoclopramide] | limited success | – | – | – |
